This note sets out measurements from patent publication US9969719B2, “Substituted 2-hydrogen-pyrazole derivative serving as anticancer drug” (CHIA TAI TIANQING PHARMACEUTICAL GROUP CO., LTD., priority 2015, dated 2018).

One series deals with T1, CDK4/cyclin D1 (Homo sapiens, UniProt P11802).
T1 construct: purchased Life Technologies
Briefly: CDK4/cyclin D1 Lance Ultra enzyme assay. The class given is biochemical. As to conditions: 350 μM ATP, 180 minutes. On the procedure: (§1) The experimental materials included CDK2/cyclin A, CDK4/cyclin D1, CDK6/cyclin D1 (Life Technologies); ULight-labeled polypeptide substrates, i.e., ULight-4E-BP1 and ULight-MBP (PerkinElmer); the europium-labeled antibody against anti-myelin basic protein and europium-labeled rabbit antibody (PerkinElmer); and Envision® Multilabel Plate Reader (PerkinElmer) used for signal detection.
(§2) The compounds to be tested were diluted three times so as to be at ten gradually varied concentrations.
The dilutions of the compounds were dissolved in enzyme buffer, respectively. The components of the buffer included 50 mM hydroxyethylpiperazine ethanesulfonic acid solution (pH 7.5), 1 mM ethylenediaminetetraacetic acid, 10 mM magnesium chloride, 0.01% Brij-35, and 2 mM dithiothreitol. After the reaction started, the OptiPlate 384-well plate was sealed with top heat-sealing film TopSeal-A and incubated at room temperature for 180 minutes. • The Enzyme Reaction System of CDK6/Cyclin D1
(§3) The stop buffer of the enzyme reaction was prepared by dissolving EDTA in a one-fold dilution of the assay buffer. The reaction was terminated at room temperature for 5 minutes. To each of the reaction systems of CDK2/cyclin A, CDK4/cyclin D1 and CDK6/cyclin D1 was added 5 μL assay mixture (provided with antibody the europium-labeled against anti-myelin basic protein and the europium-labeled rabbit antibody, respectively). They were incubated at room temperature for 60 minutes. The reaction signals were detected by the EnVision instrument according to the principle of time-resolved fluorescence resonance energy transfer.

A further series concerns the target T2, CDK6/cyclin D1 (Homo sapiens, UniProt Q00534).
T2 construct: purchased Life Technologies
Briefly: CDK6/cyclin D1 Lance Ultra enzyme assay. The following applies: 250 μM ATP, 180 minutes. The class given is biochemical. On the procedure: as §1, §2
The dilutions of the compounds were dissolved in enzyme buffer, respectively. The components of the buffer included 50 mM hydroxyethylpiperazine ethanesulfonic acid solution (pH 7.5), 1 mM ethylenediaminetetraacetic acid, 10 mM magnesium chloride, 0.01% Brij-35, and 2 mM dithiothreitol. After the reaction started, the OptiPlate 384-well plate was sealed with top heat-sealing film TopSeal-A and incubated at room temperature for 180 minutes.
as §3

The target in another series is T3, CDK2/cyclin A (Homo sapiens, UniProt P24941).
T3 construct: purchased Life Technologies
Briefly: CDK2/cyclin A Lance Ultra enzyme assay. As to conditions: 25 μM ATP, 60 minutes. The class given is biochemical. The protocol:
as §1, §2
The gradient dilutions of the compounds were dissolved in enzyme buffer, respectively. The components of the buffer included 50 mM hydroxyethylpiperazine ethanesulfonic acid solution (pH 7.5), 1 mM ethylenediaminetetraacetic acid, 10 mM magnesium chloride, 0.01% Brij-35, and 2 mM dithiothreitol. After the reaction started, the OptiPlate 384-well plate was sealed with top heat-sealing film TopSeal-A and incubated at room temperature for 60 minutes. • The Enzyme Reaction System of CDK4/Cyclin D1
as §3

A further series concerns MCF-7 cells. Description: MCF-7 cell proliferation (CellTiter-Glo, 6 days). The class given is cell-based, human. The following applies: for IC50: Homo sapiens, MCF7, proliferation, 6 days; for MCF-7/MDA-MB-436: ratio of the proliferation IC50 values. The protocol: EnVision® Multilabel Plate Reader (PerkinElmer) was used.
MCF-7 cells were inoculated in a black 384-well plate by adding 45 μL of the cell suspension (containing 200 of MCF-7 cells) to each of the wells. The plate was incubated overnight in a carbon dioxide incubator.
(§4) A duplicate well test was performed. The medium was added to the middle plate in an amount of 49 μL per well. The gradient dilutions of the compounds were transferred in an amount of 1 μL per well to the middle plate at the corresponding positions, and the mixture was mixed and transferred to the cell plate in an amount of 5 μL per well. The cell plate was incubated in a carbon dioxide incubator for 6 days. Promega CellTiter-Glo reagent was added to the cell plate in an amount of 25 μL per well. The cell plate was incubated at room temperature for 10 minutes to stabilize the luminescence signal. EnVision® Multilabel Plate Reader (PerkinElmer) was used for signal detection.

Another series concerns MDA-MB-436 cells. Description: MDA-MB-436 cell proliferation (CellTiter-Glo). The class given is cell-based. The following applies: Homo sapiens. On the procedure:
RPMI 1640 medium, fetal bovine serum, penicillin/streptomycin were purchased from Promega (Madison, Wis.). The MCF-7 cell line and the MDA-MB-436 cell line were purchased from the European Collection of Authenticated Cell Cultures (ECACC). EnVision® Multilabel Plate Reader (PerkinElmer) was used.
as §4, with “The compounds to be tested were diluted three times using Bravo to the tenth concentration, i.e., diluted from 10 μM to 0.508 nM. A” for “A”
The IC50 values were obtained by curve fitting using four parameters (obtained from the 205 mode in XLFIT5, iDBS). Table 1 provides the inhibitory activities of the compounds of the invention against the proliferation of MCF-7 cells and MDA-MB-436 cells.

Series [1] in a line: Study of brain permeability after oral administration. The class given is in vivo, SD rats. The protocol:
SD rats were used as the test animals.
Twelve healthy 7- to 9-week-old adult male SD rats were purchased from Shanghai Slack Laboratory Animal Co., Ltd. A proper amount of the test compound was weighed to prepare a 0.5% methylcellulose suspension at 1 mg/mL. The rats received a single oral dose of 10 mg/kg. 0.5 h, 2 h, 8 h, and 24 hours after the administration, 3 rats were respectively killed, and their whole blood and brain tissues were collected. The plasma was prepared by centrifuging the whole blood (3000 g, 15 minutes, 4° C.). The samples of brain homogenate were prepared by mixing the brain tissues with a mixture of methanol and a phosphate buffer (methanol:phosphate buffer=1:2) as homogenate at a ratio of 5:1. The drug concentration of each sample was determined by LC/MS/MS, and AUC was calculated to evaluate the exposure.

Series [2] has as its system human breast cancer cell line MCF-7. The class given is in vivo. The protocol:
The in vivo pharmacodynamic study was carried out in human-based tumor cell line-derived xenografted (CDX) BALB/c nude mice, in which were subcutaneously implanted human breast cancer cell line MCF-7.
. All the cages, matts and water were disinfected before use. All the animals had free access to a standard certified commercial laboratory diet. A total of 100 mice were purchased from Shanghai BK Laboratory Animal Co., LTD for study. An estrogen tablet ([…], sustained release within 60 days) was subcutaneously implanted in the left next abdomen of each mice. After 3 days, the tumor cells (10×10^6 in 0.2 mL of phosphate buffer) were subcutaneously implanted in the right next abdomen of each mice for the tumor growth. The administration started when the average tumor volume reached about 150-200 mm^3. The test compounds were orally administered daily, the doses were shown as Table 5. The tumor volumes were measured with a two-dimensional caliper every three days, the volumes were expressed in cubic millimeters and calculated by the formula V=0.5a×b^2, wherein a and b were the major diameter and minor diameter of the tumor, respectively. Antitumor efficacy was determined by dividing an average increase of the tumor volumes of the animals treated with the compounds by an increase of the tumor volumes of the untreated animals.

Series [3] can be described thus: Caco-2 cell bi-directional permeability assessment. As to conditions: human, Caco-2, pH 7.4.
Description: (§5) The standard experimental conditions were as follows: • Test concentration: 2 μM (DMSO≤1%); • Number of replication: n=2; • Direction: bi-directional transportation, including two directions, i.e., A→B and B→A; • Incubation time: single time point, 2 hours; • Transport buffer: HBSS, pH 7.4; • Incubation conditions: 37° C., 5% CO2.
(§6) After the incubation, sample solutions taken from the dosing wells and the receiving wells were immediately mixed with a cold acetonitrile solution containing the internal standard. Concentrations of the test compounds in all samples (including the initial dosing solutions, the supernatants of the dosing wells and the receiving solutions) were determined by a LC/MS/MS method. The apparent permeability coefficients, the efflux ratios and other parameters were calculated.
For series [4], the system named is Caco-2 monolayer cells. Description: Caco-2 cell bi-directional permeability assessment.
Description: as §5, §6
Series [5] has as its system Caco-2 monolayer cells.
Description: as §5, §6
A short description of another series: in vitro. The following applies: human, Caco-2, pH 7.4.
Setting [6] is: 10 mg/kg oral, time point 0.5 h.
The mark [7] stands for this setting: human, Caco-2, 2 h, 2 μM, pH 7.4.

Read-outs that look alike come from different tables or passages of the source.

T1 sequence (P11802 whole entry): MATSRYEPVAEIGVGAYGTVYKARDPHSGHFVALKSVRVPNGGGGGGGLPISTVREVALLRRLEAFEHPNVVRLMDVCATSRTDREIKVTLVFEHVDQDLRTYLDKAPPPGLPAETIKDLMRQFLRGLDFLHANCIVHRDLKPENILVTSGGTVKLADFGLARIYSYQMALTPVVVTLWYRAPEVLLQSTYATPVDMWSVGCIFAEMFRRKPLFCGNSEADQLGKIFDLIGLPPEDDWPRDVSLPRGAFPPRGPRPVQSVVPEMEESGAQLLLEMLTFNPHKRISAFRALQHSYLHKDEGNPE
T1 sequence (P24385 whole entry partner): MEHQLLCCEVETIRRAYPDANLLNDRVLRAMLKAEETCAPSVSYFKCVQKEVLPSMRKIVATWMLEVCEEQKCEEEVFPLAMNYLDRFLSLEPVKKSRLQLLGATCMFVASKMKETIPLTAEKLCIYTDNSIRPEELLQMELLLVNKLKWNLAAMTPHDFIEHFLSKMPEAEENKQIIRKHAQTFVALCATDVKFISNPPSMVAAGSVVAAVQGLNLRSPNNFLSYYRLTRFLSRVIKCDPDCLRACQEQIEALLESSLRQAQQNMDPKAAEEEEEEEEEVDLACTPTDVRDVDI
T2 sequence (Q00534 whole entry): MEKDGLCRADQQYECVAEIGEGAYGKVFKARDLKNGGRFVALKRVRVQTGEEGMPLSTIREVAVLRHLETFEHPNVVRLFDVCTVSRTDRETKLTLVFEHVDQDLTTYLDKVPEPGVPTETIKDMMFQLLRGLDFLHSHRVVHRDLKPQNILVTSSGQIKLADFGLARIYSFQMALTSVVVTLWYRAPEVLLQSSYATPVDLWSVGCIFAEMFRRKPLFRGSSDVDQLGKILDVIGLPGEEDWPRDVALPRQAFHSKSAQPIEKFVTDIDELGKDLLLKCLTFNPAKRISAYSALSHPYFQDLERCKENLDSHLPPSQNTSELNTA
T2 sequence (P24385 whole entry partner): as the sequence (P24385 whole entry partner) above
Description for in vitro: as §5, §6

For `CC(C)c1c2cc(-c3nc(Nc4ccc(N5CCN(CCC#N)CC5)cn4)ncc3F)ccc2nn1C` [Example 7, 3-[4-[6-[[5-fluoro-4-(3-isopropyl-2-methyl-2H-indazol-5-yl)pyrimidin-2-yl]amino]-3-pyridyl]piperazin-1-yl]propanenitrile], the IC50 against CDK4/cyclin D1 came out at 1.82 nM; against CDK6/cyclin D1 it was 4.52 nM; at CDK2/cyclin A it was 12 nM; in the series with MCF-7 cells, 37.2 nM; in the series on MDA-MB-436 cells it was 1160 nM. Also, the MCF-7/MDA-MB-436 in the series on MCF-7 cells is on record as 31.1. Besides, the “selectivity in inhibiting the proliferation of estrogen receptor positive breast cancer cells (MCF-7/MDA-MB-436)” value in the series on MCF-7 cells (versus LY2835219, in words) is reported as “higher selectivity”. Further, the “inhibitory activities against the proliferation of MCF-7 cells compared with the reference compounds” value in the series with MCF-7 cells (versus Palbociclib and LY2835219, in words) is given as “higher inhibitory activities”. In addition, the “exposure in brain after 8 hours” value in [1] (10 mg/kg oral, in words) is “significantly decreased”. Besides, the Exposure in brain in [1] (setting [6]) came to 1564 nmol/kg; in [1] (10 mg/kg oral, time point 2 h) it was 2922 nmol/kg; in series [1] (10 mg/kg oral, time point 8 h) it was 307 nmol/kg. The “exposure in brain tissue compared with the reference compounds” value in series [1] (rat, versus Palbociclib and LY2835219, in words, b797: 0.5 hour and 2 hour) is on record as “higher exposure”. The Tomor volumes in [2] (50.0 mg/kg orally daily, 0 day) is 187 mm^3; in [2] (50.0 mg/kg orally daily, 7th day) it was 271 mm^3; in series [2] (50.0 mg/kg orally daily, 14th day), 318 mm^3; in series [2] (50.0 mg/kg orally daily, 21st day), 350 mm^3. For the same compound, in series [2] (in words), the “antitumor activities in the CDX model of MCF-7 breast cancer” value is “significant antitumor activities”. For the same compound, in series [3], the Papp A→B at 2 h, 2 μM stood at 6.55 ×10⁻⁶ cm/s. Moreover, in series [3], the Papp B→A at 2 h, 2 μM was 3.38 ×10⁻⁶ cm/s. In series [3], the efflux ratio at 2 h, 2 μM came to 0.52. Also, the “Classification Permeability” value in the series with Caco-2 monolayer cells [4] (Caco-2) is “High”. Further, the “Classification Substrates of efflux transporters” value with Caco-2 monolayer cells [4] (Caco-2) was “Unlikely”. In the series with Caco-2 monolayer cells [4] (Caco-2, versus Palbociclib and LY2835219, in words), the “permeability compared with the reference compounds” value is “higher permeability”.

Consider `CC(=O)c1c(C)c2cnc(Nc3ccc(N4CCNCC4)cn3)nc2n(C2CCCC2)c1=O` [Palbociclib, reference compound], for which the IC50 with MCF-7 cells was 87 nM; in the series on MDA-MB-436 cells, 9840 nM. Moreover, the MCF-7/MDA-MB-436 in the series with MCF-7 cells stood at 113. In addition, the Exposure in brain in series [1] (setting [6]) was determined as 80 nmol/kg; in series [1] (10 mg/kg oral, time point 2 h), 329 nmol/kg; in [1] (10 mg/kg oral, time point 8 h), 184 nmol/kg. Besides, the Tomor volumes in [2] (45.0 mg/kg orally daily, 0 day) is reported as 187 mm^3; in series [2] (45.0 mg/kg orally daily, 7th day), 264 mm^3; in [2] (45.0 mg/kg orally daily, 14th day) it was 387 mm^3; in series [2] (45.0 mg/kg orally daily, 21st day) it was 633 mm^3. The “tolerability of high doses in the animals” value in series [2] (mouse, in vivo) is “intolerable”. Further, the “Classification Permeability” value in the series on Caco-2 monolayer cells [5] (Caco-2) is listed as “Medium”. Also, the “Average apparent permeability coefficient A to B” value in the series on Caco-2 monolayer cells [5] (setting [7]) is reported as 9.18 10^−6 cm/s. In addition, the “Average apparent permeability coefficient B to A” value in the series on Caco-2 monolayer cells [5] (setting [7]) is 7.51 10^−6 cm/s. Also, the Papp A→B at 2 h, 2 μM in “in vitro” came to 0.85 ×10⁻⁶ cm/s. In addition, the basolateral-to-apical permeability (Papp B→A) at 2 h, 2 μM in “in vitro” amounted to 16.5 ×10⁻⁶ cm/s.
